From PubChem BioAssay AID248 (DTP/NCI, 2004)
Values joined by “and” are separate entries in the source; they are usually repeats but may differ in a detail not shown here. Equal values may be shown once. Toxic doses and inconclusive results are not listed. Cut-off read from the data, not from the text of the source: active = T/C of 150% or more; inactive = T/C below 125%.

Test system: L1210 leukemia ip in BDF1 mice, survival T/C
Experiment: NCI In Vivo Anticancer Drug Screen. Data for tumor model L1210 Leukemia (intraperitoneal) in B6D2F1 (BDF1) mice
Settings: endpoint: mean survival time, higher = longer survival
Outline: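 Ratio derived from survival: compound-dosed mice over vehicle-dosed mice, all bearing a transplantable tumor.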

[1] = dose: 100.0 mg/kg/injection, schedule: Q01DX009 (ip), vehicle: Klucel (hydroxypropylcellulose) (HPC)
[2] = dose: 100.0 mg/kg/injection, schedule: Q04DX003 (ip), vehicle: Klucel (hydroxypropylcellulose) (HPC)
[3] = dose: 200.0 mg/kg/injection, schedule: Q01DX009 (ip), vehicle: Klucel (hydroxypropylcellulose) (HPC)
[4] = dose: 200.0 mg/kg/injection, schedule: Q04DX003 (ip), vehicle: Klucel (hydroxypropylcellulose) (HPC)
[5] = dose: 400.0 mg/kg/injection, schedule: Q04DX003 (ip), vehicle: Klucel (hydroxypropylcellulose) (HPC)
[6] = dose: 100.0 mg/kg/injection, schedule: Q04DX003 (ip), vehicle: saline with Tween-80
[7] = dose: 200.0 mg/kg/injection, schedule: Q04DX003 (ip), vehicle: saline with Tween-80
[8] = dose: 400.0 mg/kg/injection, schedule: Q04DX003 (ip), vehicle: saline with Tween-80
[9] = dose: 100.0 mg/kg/injection, schedule: Q01DX001 (ip), vehicle: saline
[10] = dose: 100.0 mg/kg/injection, schedule: Q01DX009 (ip), vehicle: saline
[11] = dose: 200.0 mg/kg/injection, schedule: Q01DX001 (ip), vehicle: saline
[12] = dose: 200.0 mg/kg/injection, schedule: Q01DX009 (ip), vehicle: saline
[13] = dose: 400.0 mg/kg/injection, schedule: Q01DX001 (ip), vehicle: saline
[14] = dose: 400.0 mg/kg/injection, schedule: Q01DX009 (ip), vehicle: saline
[15] = dose: 100.0 mg/kg/injection, schedule: Q04DX002 (ip), vehicle: Klucel (hydroxypropylcellulose) (HPC)
[16] = dose: 200.0 mg/kg/injection, schedule: Q04DX002 (ip), vehicle: Klucel (hydroxypropylcellulose) (HPC)
[17] = dose: 400.0 mg/kg/injection, schedule: Q04DX002 (ip), vehicle: Klucel (hydroxypropylcellulose) (HPC)
[18] = dose: 50.0 mg/kg/injection, schedule: Q01DX001 (ip), vehicle: saline
[19] = dose: 100.0 mg/kg/injection, schedule: Q01DX001 (ip), vehicle: saline with Tween-80
[20] = dose: 200.0 mg/kg/injection, schedule: Q01DX001 (ip), vehicle: saline with Tween-80
[21] = dose: 400.0 mg/kg/injection, schedule: Q01DX001 (ip), vehicle: saline with Tween-80
[22] = dose: 50.0 mg/kg/injection, schedule: Q01DX009 (ip), vehicle: Klucel (hydroxypropylcellulose) (HPC)
[23] = dose: 100.0 mg/kg/injection, schedule: Q04DX003 (ip), vehicle: saline
[24] = dose: 200.0 mg/kg/injection, schedule: Q04DX003 (ip), vehicle: saline
[25] = dose: 400.0 mg/kg/injection, schedule: Q04DX003 (ip), vehicle: saline
[26] = dose: 100.0 mg/kg/injection, schedule: Q01DX009 (ip), vehicle: saline with Tween-80
[27] = dose: 200.0 mg/kg/injection, schedule: Q01DX009 (ip), vehicle: saline with Tween-80
[28] = dose: 400.0 mg/kg/injection, schedule: Q01DX009 (ip), vehicle: saline with Tween-80

Measured: T/C

C=CCOC(=O)Oc1ccccc1Cl
inactive: [1] 92 % of control | [2] 95 % of control | [3] 89 % of control | [4] 97 % of control

CCOC(=O)/C(C)=C\C1C(C)=CC(=O)CC1(C)C (centres undefined)
inactive: [2] 102 % of control | [4] 95 % of control | [5] 100 % of control

CCN(CCCl)c1ccc(/C=C/C2=[N+](C)c3ccccc3C2(C)C)c(C)c1
inactive: dose: 0.78 mg/kg/injection, schedule: Q01DX009 (ip), vehicle: saline 106 % of control | dose: 1.56 mg/kg/injection, schedule: Q01DX009 (ip), vehicle: saline 97 % of control | dose: 3.13 mg/kg/injection, schedule: Q01DX009 (ip), vehicle: saline 112 % of control | dose: 6.25 mg/kg/injection, schedule: Q04DX003 (ip), vehicle: saline 96 % of control | dose: 12.5 mg/kg/injection, schedule: Q04DX003 (ip), vehicle: saline 86 % of control

c1ccc(-c2cccc([Si](c3ccccc3)(c3ccccc3)c3cccc(-c4ccccc4)c3)c2)cc1
inactive: [6] 92 % of control | [7] 88 % of control | [8] 97 % of control

COc1ccc(C(C)=O)c(OC)c1
inactive: [9] 98 % of control | [10] 112 % of control | [11] 98 % of control | [12] 94 % of control | [13] 98 % of control | [14] 102 % of control

CC(=O)Oc1ccccc1/C=C\C=O
inactive: [9] 103 % of control | [11] 106 % of control | [13] 105 % of control

O=C(Nc1cccc(F)c1)Nc1cccc(C(F)(F)F)c1
inactive: [1] 96 % of control | [3] 95 % of control | dose: 400.0 mg/kg/injection, schedule: Q01DX009 (ip), vehicle: Klucel (hydroxypropylcellulose) (HPC) 105 % of control

CCCCCCCCCCCC(=O)NC(=S)Nc1ccc(N(C)C)cc1
inactive: [15] 93 % of control | [16] 108 % of control | [17] 90 % of control

O=C1CN=C(c2ccccc2Cl)c2cc([N+](=O)[O-])ccc2N1
inactive: [15] 93 % of control | [16] 108 % of control | [17] 86 % of control

COc1cccc(CNC(C)(CO)CO)c1OC
inactive: [18] 98 % of control | [9] 104 % of control | [11] 102 % of control

CCOC(=O)Nc1cc(NCC(O)CN(C)C)c([N+](=O)[O-])c(N)n1 (centres undefined)
inactive: [19] 103 % of control | [20] 94 % of control | [21] 101 % of control

CCCCC(CCCC)c1cc[n+](CC(=O)c2ccccc2)cc1
inactive: dose: 12.5 mg/kg/injection, schedule: Q01DX001 (ip), vehicle: saline 106 % of control | [18] 97 % of control

O=S(=O)(c1ccc(Cl)cc1)C(F)F
inactive: dose: 12.5 mg/kg/injection, schedule: Q01DX009 (ip), vehicle: Klucel (hydroxypropylcellulose) (HPC) 89 % of control | dose: 12.5 mg/kg/injection, schedule: Q04DX003 (ip), vehicle: Klucel (hydroxypropylcellulose) (HPC) 91 % of control | dose: 25.0 mg/kg/injection, schedule: Q01DX009 (ip), vehicle: Klucel (hydroxypropylcellulose) (HPC) 93 % of control | dose: 25.0 mg/kg/injection, schedule: Q04DX003 (ip), vehicle: Klucel (hydroxypropylcellulose) (HPC) 89 % of control | [22] 91 % of control | dose: 50.0 mg/kg/injection, schedule: Q04DX003 (ip), vehicle: Klucel (hydroxypropylcellulose) (HPC) 97 % of control

O=c1c([N+](=O)[O-])cc([N+](=O)[O-])cn1O
inactive: [2] 100 % of control | [4] 100 % of control | [5] 90 % of control

Cc1c(C(=O)Nc2ccc(C3=NCCN3)cc2)cccc1C(=O)Nc1ccc(C2=NCCN2)cc1
inactive: dose: 42.0 mg/kg/injection, schedule: Q01DX Z (ip), vehicle: carboxymethylcellulose (CMC) 104 % of control | dose: 85.0 mg/kg/injection, schedule: Q01DX Z (ip), vehicle: carboxymethylcellulose (CMC) 104 % of control

O=CNNc1ccc([N+](=O)[O-])cc1
inactive: [22] 97 % of control | [1] 100 % of control | [2] 94 % of control | [3] 86 % of control | [4] 94 % of control | [5] 94 % of control

O=C(O)c1ccc(NCc2cccc(N=Cc3ccccc3)c2)cc1
inactive: [19] 93 % of control | [20] 93 % of control | [21] 103 % of control

COC(=O)C1CCC[N+](C)(C)C1 (centres undefined)
inactive: dose: 25.0 mg/kg/injection, schedule: Q04DX003 (ip), vehicle: saline 95 % of control | dose: 50.0 mg/kg/injection, schedule: Q04DX003 (ip), vehicle: saline 97 % of control | [23] 94 % of control

CCN(CC)C(C)COC(=O)c1ccc(N)cc1 (centres undefined)
inactive: dose: 12.5 mg/kg/injection, schedule: Q01DX009 (ip), vehicle: saline 101 % of control | dose: 25.0 mg/kg/injection, schedule: Q01DX009 (ip), vehicle: saline 101 % of control | dose: 50.0 mg/kg/injection, schedule: Q01DX009 (ip), vehicle: saline 95 % of control

CCCCCCCCCCCCCCCCN1CCN(CCCCCCCCCCCCCCCC)CC1
inactive: [15] 108 % of control | [16] 101 % of control | [17] 101 % of control

CC(=O)Nc1c(Cl)cc(Cl)cc1Cl
inactive: [19] 109 % of control | [20] 93 % of control | [21] 95 % of control

Cc1cc(=O)c2c(=O)[nH][nH]c2[nH]1
inactive: [23] 95 % of control | [24] 105 % of control | [25] 94 % of control

Nc1ncnc2c1ncn2C1OC(COP(=O)(O)OCC(N)Cc2ccccc2)C(O)C1O (centres undefined)
inactive: dose: 100.0 mg/kg/injection, schedule: Q01DX005 (ip), vehicle: saline 87 % of control | dose: 200.0 mg/kg/injection, schedule: Q01DX005 (ip), vehicle: saline 107 % of control

O=C(O)c1cc(I)c(I)c(I)c1
inactive: [6] 97 % of control | [7] 101 % of control

COC1OC(CCl)C(OC(=O)c2ccccc2)C(OC(=O)c2ccccc2)C1OC(=O)c1ccccc1 (centres undefined)
inactive: [15] 114 % of control | [16] 101 % of control | [17] 104 % of control

NC(=S)N1N=C(c2cccc([N+](=O)[O-])c2)CCC1=O
inactive: [26] 92 % of control | [27] 92 % of control | [28] 101 % of control

O=C(/C=C/CBr)NC(Cc1ccccc1)C(=O)O (centres undefined)
inactive: dose: 75.0 mg/kg/injection, schedule: Q01DX001 (ip), vehicle: other 104 % of control

C/C=C/C=C/COC(=O)C=C(C)C
inactive: dose: 100.0 mg/kg/injection, schedule: Q04DX002 (ip), vehicle: saline 107 % of control | dose: 200.0 mg/kg/injection, schedule: Q04DX002 (ip), vehicle: saline 101 % of control | dose: 400.0 mg/kg/injection, schedule: Q04DX002 (ip), vehicle: saline 107 % of control

CCCC(/C=N/Nc1ccc([N+](=O)[O-])cc1[N+](=O)[O-])=C\c1ccccc1
inactive: [19] 88 % of control | [20] 88 % of control

COc1ccccc1[P+](CO)(c1ccccc1OC)c1ccccc1OC
inactive: [10] 97 % of control | [23] 103 % of control | [12] 92 % of control | [24] 97 % of control | [14] 93 % of control | [25] 97 % of control

CCOC(=O)CCC(C(=O)OCC)c1nc2ccccc2[nH]c1=O (centres undefined)
inactive: [2] 108 % of control | [4] 108 % of control | [5] 96 % of control

CC(=O)Nc1ccc(N=CN(C)C)cc1
inactive: [26] 94 % of control | [27] 101 % of control

O=C1CCCCc2c1ccc(O)c2[N+](=O)[O-]
inactive: dose: 50.0 mg/kg/injection, schedule: Q01DX009 (ip), vehicle: saline with Tween-80 88 % of control

Oc1cncc2ccccc12
inactive: [23] 94 % of control | [25] 90 % of control

Cc1ncc(C(=O)c2ccccc2)n1Cc1ccccc1
inactive: [19] 88 % of control | [6] 94 % of control | [20] 90 % of control | [27] 94 % of control and 107 % of control | [7] 92 % of control | [21] 95 % of control | [28] 96 % of control and 100 % of control | [8] 90 % of control
